# Data: ChEMBL document CHEMBL5390251, “Pyrazolidinone-based peptidomimetic SARS-CoV-2 Mpro inhibitors” (Bioorg Med Chem Lett, 2023)
# The source made the active and inactive calls. The rule behind the calls is not given here.
# Molecular target: Replicase polyprotein 1ab (Severe acute respiratory syndrome coronavirus 2, UniProt P0DTD1)
# Assay: Inhibition of SARS-Cov-2 Main protease by FRET assay
row,Structure (SMILES),IC50
1,O=C(N[C@@H](Cc1ccccc1)C(=O)O)c1cc2ccccc2[nH]1,> 500 µM
2,O=C(N[C@@H](Cc1ccccc1)C(=O)N[C@@H]1CONC1=O)c1cc2ccccc2[nH]1,> 500 µM
3,O=C(O)C1=C(Cl)CS[C@@H]2[C@H](NC(=O)[C@H](Cc3ccccc3)NC(=O)c3cc4ccccc4[nH]3)C(=O)N12,90 µM
4,N[C@H]1CN2CC(C(=O)N(Cc3ccccc3)Cc3ccccc3)=C(C(=O)O)N2C1=O,> 500 µM
5,C=CCOC(=O)C1=C(C(=O)O)N2C(=O)[C@@H](NC(=O)[C@H](Cc3ccccc3)NC(=O)c3cc4ccccc4[nH]3)CN2C1,192 µM
6,CN(Cc1ccccc1)C(=O)C1=C(C(=O)O)N2C(=O)[C@@H](NC(=O)[C@H](Cc3ccccc3)NC(=O)c3cc4ccccc4[nH]3)CN2C1,> 500 µM
7,CC1(C)S[C@@H]2[C@H](NC(=O)[C@H](Cc3ccccc3)NC(=O)c3cc4ccccc4[nH]3)C(=O)N2[C@H]1C(=O)O,134 µM
8,O=C(O)C1=C(C(=O)N(Cc2ccccc2)Cc2ccccc2)CN2C[C@H](NC(=O)[C@H](C[C@@H]3CCNC3=O)NC(=O)[C@H](Cc3ccccc3)NC(=O)c3cc4ccccc4[nH]3)C(=O)N12,163 µM
9,O=C(O)C1=C(C(=O)NCc2ccccc2)CN2C[C@H](NC(=O)[C@H](Cc3ccccc3)NC(=O)c3cc4ccccc4[nH]3)C(=O)N12,178 µM
10,O=C(O)C1=C(C(=O)NCc2ccncc2)CN2C[C@H](NC(=O)[C@H](Cc3ccccc3)NC(=O)c3cc4ccccc4[nH]3)C(=O)N12,201 µM
11,CCN(CC)C(=O)C1=C(C(=O)O)N2C(=O)[C@@H](NC(=O)[C@H](Cc3ccccc3)NC(=O)c3cc4ccccc4[nH]3)CN2C1,279 µM
12,O=C(O)C1=C(C(=O)N(Cc2ccccc2)Cc2ccccc2)CN2C[C@H](NC(=O)[C@H](Cc3ccccc3)NC(=O)c3cc4ccccc4[nH]3)C(=O)N12,45 µM
13,O=C(O)C1=C(C(=O)N2CCCC2)CN2C[C@H](NC(=O)[C@H](Cc3ccccc3)NC(=O)c3cc4ccccc4[nH]3)C(=O)N12,181 µM
14,C[C@H]1[C@H](NC(=O)[C@H](Cc2ccccc2)NC(=O)c2cc3ccccc3[nH]2)C(=O)N1S(=O)(=O)O,> 500 µM

# Molecular target: T1, Cathepsin K (Homo sapiens, UniProt P43235)
# T1 sequence (P43235 whole entry): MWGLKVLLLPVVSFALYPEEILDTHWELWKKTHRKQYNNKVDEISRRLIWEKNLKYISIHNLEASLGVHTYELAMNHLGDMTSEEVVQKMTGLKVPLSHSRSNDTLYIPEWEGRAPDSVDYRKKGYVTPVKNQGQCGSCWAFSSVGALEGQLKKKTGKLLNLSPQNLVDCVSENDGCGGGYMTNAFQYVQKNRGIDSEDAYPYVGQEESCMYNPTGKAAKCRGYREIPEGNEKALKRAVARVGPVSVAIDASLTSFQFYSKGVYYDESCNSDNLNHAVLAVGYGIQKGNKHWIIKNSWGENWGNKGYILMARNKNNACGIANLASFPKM
# Assay: Inhibition of human Cathepsin K
row,Structure (SMILES),IC50
1,O=C(O)C1=C(C(=O)N(Cc2ccccc2)Cc2ccccc2)CN2C[C@H](NC(=O)[C@H](Cc3ccccc3)NC(=O)c3cc4ccccc4[nH]3)C(=O)N12,64 µM

# Molecular target: Replicase polyprotein 1ab (Severe acute respiratory syndrome coronavirus 2) (UniProt P0DTD1)
# Assay: Uncompetitive inhibition of SARS-Cov-2 Main protease by Lineweaver-Burk plot analysis
row,Structure (SMILES),inhibition
1,O=C(O)C1=C(C(=O)N(Cc2ccccc2)Cc2ccccc2)CN2C[C@H](NC(=O)[C@H](Cc3ccccc3)NC(=O)c3cc4ccccc4[nH]3)C(=O)N12,Active

# Molecular target: Replicase polyprotein 1ab (Severe acute respiratory syndrome coronavirus 2) (UniProt P0DTD1)
# Assay: Inhibition of SARS-Cov-2 Main protease at <=500 uM by FRET assay
row,Structure (SMILES),inhibition
1,CC1(C)S[C@@H]2[C@H](N)C(=O)N2[C@H]1C(=O)O,inactive
2,N[C@@H]1CONC1=O,inactive
3,C[C@H]1[C@H](N)C(=O)N1S(=O)(=O)O,inactive
4,N[C@H]1CN2CC(C(=O)N(Cc3ccccc3)Cc3ccccc3)=C(C(=O)O)N2C1=O,inactive
5,CC1(C)[C@H](C(=O)O)N2C(=O)C[C@H]2S1(=O)=O,inactive
6,C[C@@H](O)[C@H]1C(=O)N2C(C(=O)O)=C(SCCNC=N)C[C@H]12,inactive
7,C[C@@H](O)[C@H]1C(=O)N2C(C(=O)O)=C([C@H]3CCCO3)S[C@H]12,inactive
8,NC(=O)[C@@H]1CC[C@@H]2CN1C(=O)N2OS(=O)(=O)O,inactive
9,N[C@@H]1C(=O)N2C(C(=O)O)=C(Cl)CS[C@H]12,inactive
10,CCC1C(=O)N(S(C)(=O)=O)CC1C(=O)OC (racemic; 10),inactive
11,CCC1C(=O)N(S(C)(=O)=O)CC1C(=O)OC (racemic; 11),inactive
